{"source": "patent US20130190285A1", "about": "“METHOD OF TREATING PANCREATIC CANCER” (Niiki Pharma Inc., priority 2009, published 2013)", "key": {"SW480": {"test_system": "SW480", "conditions": "colon cancer cell line SW480; cited from earlier work"}, "HT29": {"test_system": "HT29", "conditions": "colon cancer cell line HT29; cited from earlier work"}, "pancreatic cancer": {"test_system": "pancreatic cancer", "conditions": "cited from earlier work"}, "PANC-1 cells": {"test_system": "PANC-1 cells", "conditions": "cited from earlier work"}, "[1]": {"test_system": "pancreatic tumor cell line MIA PaCa2", "assay": "live-cell staining with Calcein AM in 3-dimentional tumor model (HuBiogel)", "type": "cell-based", "conditions": "MIA PaCa2 3-D tumor beads, Day 3", "protocol": "(§1) The compound sodium trans-[tetrachlorobis(1H-indazole)ruthenate(III)] was tested in a 3-dimentional tumor model derived from pancreatic tumor cell line MIA PaCa2. Specifically, cells were trypsinized, washed, counted by trypan blue exclusion. Tumor beads were then prepared by mixing 20,000 cells/10 μl of HuBiogel (4 mg/mL) (See U.S. patent application Ser. No. 10/546,506, which is incorporated herein by reference). The 3-D tumor beads were cultivated for 72 hours in multi-well plates with complete media (10% FBS) in a 37° C. incubator+5% CO2. Mini-tumors were treated with various concentrations of the test compound sodium trans-[tetrachlorobis(1H-indazole)ruthenate(III)] in media (final 0.2-0.3% DMSO) or control (DMSO). Repeated drug treatment was done by removing the culture media and replacing with fresh media with drug compound or DMSO. On Day 3, MTT assay and live-cell staining with Calcein AM were performed (5 beads/assay set).\n(§2) Statistical analysis of data sets (Average, T-test, GI-50) was performed using MS-Excel program."}, "[2]": {"test_system": "pancreatic tumor cell line MIA PaCa2", "assay": "MTT assay in 3-dimentional tumor model (HuBiogel)", "type": "cell-based", "conditions": "MIA PaCa2 3-D tumor beads", "protocol": "as §1, §2"}, "Capan-1": {"test_system": "Capan-1", "conditions": "Capan-1, 72 hours post-treatment, MTT", "protocol": "(§3) To test the activities of sodium trans-[tetrachlorobis(1H-indazole)ruthenate(III)], ATCC's MTT Cell Proliferation Assay® was performed using human pancreatic cancer cell lines PANC-1 and Capan-1. Stock cultures were allowed to grow to 70-80% confluence for this study. The anti-proliferative activity of sodium trans-[tetrachlorobis(1H-indazole)ruthenate(III)], against the indicated cell lines was evaluated in vitro using the ATCC's MTT Cell Proliferation Assay (Catalog No. 30-1010K). PANC-1 cells were grown in DMEM medium with 10% FBS and 1% pen/strep/glutamine. Capan-1 cells were grown using IMDM medium 20% FBS and 1% of pen/strep/glutamine. Panc 1 and Capan-1 cell plates were seeded with 6000 cells/well and 15,000 cells/well, respectively, and treated with sodium trans-[tetrachlorobis(1H-indazole)ruthenate(III)] at 1,000 μM, or a series of 4× dilutions thereof (250 μM, 62.5 μM, etc.). 100 μl of medium was removed from each well at 72 hours post-treatment and MTT reagent was added to each well. The plates were incubated plate at 37° C. for 4 hours and then 100 μl of detergent was added. The plates were left overnight at room temperature in the dark and was read on a plate reader using SoftMax® Pro (version 5.2, Molecular Devices).\n(§4) The absorbance data was analyzed as follows: Absorbance values were converted to Percent of Control and plotted against test agent concentrations for IC50 calculations using SoftMax® Pro (version 5.2, Molecular Devices). The plate blank signal average was subtracted from all wells prior to calculating the Percent of Control. Percent of Control values were calculated by dividing the absorbance values for each test well by the No Drug Control average (column 11 values; cells+vehicle control) and multiplying by 100. Plots of Compound Concentration versus Percent of Control were analyzed using the 4-parameter equation to obtain IC50 values and other parameters that describe the sigmoidal dose response curve.\n(§5) The IC50 value for the test agents was estimated by curve-fitting the data using the following four parameter-logistic equation: […]"}, "PANC-1": {"test_system": "PANC-1", "protocol": "as §3, §4, §5"}}}
{"molecule": "[Cl-].[Cl-].[Cl-].[Cl-].[Ru+3].c1ccc2[nH][nH+]cc2c1.c1ccc2[nH]ncc2c1.c1ccc2[nH]ncc2c1", "note": "[Indazolium trans-[tetrachlorobis(1H-indazole)ruthenate(III)], reference compound]", "values": [{"measurement": "killing tumor cells", "setting": "SW480", "value": "effective in killing tumor cells"}, {"measurement": "killing tumor cells", "setting": "HT29", "value": "effective in killing tumor cells"}]}
{"molecule": "C#Cc1cccc(Nc2ncnc3cc(OCCOC)c(OCCOC)cc23)c1", "note": "[erlotinib]", "values": [{"measurement": "median overall survival benefit", "setting": "pancreatic cancer; erlotinib in combination with gemcitabine, advanced-stage pancreatic cancer patients", "value": "less than four weeks"}, {"measurement": "sensitivity of PANC-1 cells to the drug", "setting": "PANC-1 cells", "value": "resistant"}]}
{"molecule": "Nc1ccn([C@@H]2O[C@H](CO)[C@@H](O)C2(F)F)c(=O)n1", "note": "[gemcitabine]", "values": [{"measurement": "efficacy in pancreatic cancer", "setting": "pancreatic cancer; weekly intravenous administration", "value": "effective"}, {"measurement": "sensitivity of PANC-1 cells to the drug", "setting": "PANC-1 cells", "value": "resistant"}]}
{"molecule": "[Cl][Ru-]([Cl])([Cl])[Cl].[Na+].c1ccc2[nH]ncc2c1.c1ccc2[nH]ncc2c1", "note": "[sodium trans-[tetrachlorobis(1H-indazole)ruthenate(III)]]", "values": [{"measurement": "killing tumor cells", "setting": "SW480", "value": "effective in killing tumor cells"}, {"measurement": "tumor killing in live-cell staining/image analysis", "setting": "[1]", "value": "dose-dependent tumor killing effective"}, {"measurement": "tumor proliferation activity (MTT)", "setting": "[2]; Day 3, FIG. 1", "value": "significantly inhibited tumor proliferation activity"}, {"measurement": "GI50", "setting": "[2]; MTT assay on Day 3, read-out: average GI-50 (the drug concentration required for growth inhibition at 50%)", "value": 35.7, "unit": "µM"}, {"measurement": "killing tumor cells", "setting": "HT29", "value": "effective in killing tumor cells"}, {"measurement": "IC50", "setting": "Capan-1", "value": 45.2, "unit": "µM"}, {"measurement": "IC50", "setting": "PANC-1; PANC-1, 72 hours post-treatment, MTT", "value": 30.6, "unit": "µM"}, {"measurement": "activity in cells resistant to gemcitabine and erlotinib", "setting": "PANC-1; PANC-1 cells", "value": "active"}]}
